According to patent US20070066681A1, “Pharmaceutical composition for treating fatty liver or hepatic disease” (CHUGAI SEIYAKU KAUSHIKI KAISHA, priority 2003, published 2007):

Columns and labels:
Format in all cases: in vivo
[1] = system: excess apoAI expressing mice fed with high fat diet; test: Action of BO-653 on excess apoAI expressing mice fed with high fat diet (fatty liver and associated hepatic disease); settings: for AST (serum) / Liver weight / Total cholesterol (serum): 0.6% BO-653 or 0.5% probucol in high fat diet, 37 weeks of feeding, mean ± standard error; for blood AST compared with high fat diet group (in words) / liver weight compared with high fat diet group (in words): drug-containing high fat diet vs high fat diet only, 37 weeks
Source text: The therapeutic activity of BO-653 against fatty liver and associated hepatic disease was investigated using excess apoAI expressing mice which were fed with a high fat diet to induce fatty liver and further develop hepatic diseases.
ApoAI, i.e., apolipoprotein AI, is an apolipoprotein constituting high density lipoproteins mainly responsible for blood lipid metabolism in rodents including mice. In mice expressing excess apoAI, blood cholesterol levels are originally high. Thus, even if they are fed with a high fat diet for causing the onset of fatty liver, increases in blood cholesterol are relatively small. Such mice are advantageous in that the influence of changes in blood cholesterol on the results of the test need not be considered in evaluating the therapeutic activity of BO-653 against fatty liver and associated hepatic disease.
(§1) Mice expressing excess apoAI (female, 10 to 11 weeks of age, purchased from Jackson Laboratories) were divided into 4 groups of N-animals. The animals of the respective groups were fed with a normal diet, a high fat diet, a 0.6% BO-653-containing high fat diet (hereinafter referred to as B+ high fat diet), and a 0.5% probucol-containing high fat diet (hereinafter referred to as P+ high fat diet).
(§2) The B+high fat diet and the P+ high fat diet were prepared by removing cellulose in amounts corresponding to 0.60% and 0.50%, respectively, from the high fat diet of the above composition, and adding the corresponding amounts of BO-653 and probucol, respectively, to the remaining composition. Probucol is a liposoluble antioxidant.
(§3) Serum was separated from the collected blood, and AST and total cholesterol in the serum were measured with an autoanalyzer (COBS FARAII ROCHE). The entire body of the animal subjected to the laparotomy and blood collection was perfused with physiological saline, and the weight of the liver was measured.

[2] = system: C57BL/6J mice fed with high fat diet; test: Same high fat diet test in C57BL/6J mice expressing apolipoprotein AI normally; settings: B+ high fat diet (0.6% BO-653), only high fat diet: 275±31
Method: as §1, §2, §3
(§4) The same tests were conducted using C57BL/6J mice (female, 6 weeks of age, purchased from CLEA Japan) expressing apolipoprotein AI normally, and apoAI deficiency mice (female, 10 to 11 weeks of age, purchased from Jackson Laboratories) expressing no apolipoprotein AI in contrast to the animals in the present Test Example.

[3] = system: apoAI deficiency mice fed with high fat diet; test: Same high fat diet test in apoAI deficiency mice; settings: B+ high fat diet (0.6% BO-653), only high fat diet: 159±10
Method: as §1, §2, §3, §4

[4] = system: apoE deficiency mice; test: Effect of BO-653 in apoE deficiency mice
Method: Besides, the effect of BO-653 was tested using apoE deficiency mice. These mice are known as mice showing high blood total cholesterol levels even on a normal diet and, at the same time, show high blood AST even on a normal diet.

| Structure (SMILES) | AST (serum) [1] [U/L] | Liver weight [1] [mg] | Total cholesterol (serum) [1] [mg/dL] | suppression of AST leakage from liver cells, action relative to probucol ([1]; decline in blood AST, B+ vs P+ high fat diet) | blood AST compared with high fat diet group (in words) [1] | liver weight compared with high fat diet group (in words) [1] | serum AST [2] | blood ASL [3] | blood AST [4] | blood total cholesterol values [4] |
| --- | --- | --- | --- | --- | --- | --- | --- | --- | --- | --- |
| CCCCCC1(CCCCC)Cc2c(cc(C(C)(C)C)c(O)c2C(C)(C)C)O1 [BO-653, 4,6-di-t-butyl-5-hydroxy-2,2-di-n-pentyl-2,3-dihydrobenzofuran] | 96 ± 7 | 2789 ± 106 | 353 ± 32 | several times as high as that of probucol | greatly lower | significantly less | 181±18 | 85±8 | lowered | without involving changes |
| CC(C)(Sc1cc(C(C)(C)C)c(O)c(C(C)(C)C)c1)Sc1cc(C(C)(C)C)c(O)c(C(C)(C)C)c1 [probucol, reference compound] | 218 ± 18 | 2923 ± 185 | 203 ± 10 |  | not as great as those in the B+ high fat diet group | not as great as those in the B+ high fat diet group |  |  |  |  |
